{"source": "patent US7217530B2", "about": "(priority 2002, dated 2007)", "key": {"[1]": {"system": "PrP^sc"}, "[2]": {"target": "recombinant PrP protein (recPrP) (Homo sapiens, UniProt P04156)", "format": "physicochemical"}}, "data": [{"substance": "p-sulfonato-3,7-(2-carboxy-methyloxy)-calix-[6]-arene [AML1]", "values": [{"measurement": "dilution up to which detection of PrP^sc in the sample is possible", "setting": "[1]", "result": "1/32"}, {"measurement": "detection of the prion increased over detection of the same protein in the absence of AML1", "setting": "[1]; immunoblotting, FIG. 1, free AML1", "result": "at least four"}, {"measurement": "structures observed for recPrP films in the presence of AML", "setting": "[2]; SPM images, FIGS. 3 and 4", "result": "modified sequentially"}, {"measurement": "Average height", "setting": "[2]; dried film on mica, SPM", "result": 217.7}, {"measurement": "Maximum height value", "setting": "[2]; dried film on mica, SPM", "result": 448.9}, {"measurement": "RMS (root mean square rugosity)", "setting": "[2]; dried film on mica, SPM", "result": 58.7, "unit": "nm"}, {"measurement": "Ra (average rugosity)", "setting": "[2]; dried film on mica, SPM", "result": 48, "unit": "nm"}]}]}
